From patent publication US9963518B2, “Cyclic oligosaccharides for use in the treatment and prevention of bacterial infection” (priority 2011, dated 2018)
Where two headings read alike, the source gives them in different places.

Experiments:
WT Wza = WT Wza (Escherichia coli, UniProt Q9X4B7); assay: Single-channel electrical recording, blockers against wt-Wza in planar lipid bilayers; assay type: binding, E. coli; details: for Interaction with WT Wza: 2M KCl, 5 mM HEPES, 100 μM EDTA, 200 μM DTT, pH 7.5
Experimental: The Wt Wza transporter was tested in single-channel recording, in accordance with the procedures of Naismith (Nature 2006, 444, 226-229) for its ability to form pores in planar lipid bilayers. Sequential insertions of channels in a single orientation were used to measure the conductance of a single channel because more than one channel could insert simultaneously during the first introduction, especially when protein molecules have not properly diffused yet. Repetition of experiments helped to verify conductance of a single channel. […] After collection of 37 insertions of wt Wza channel, the current of a single channel of wt Wza in 2 M KCl buffer was determined to be 1.89±0.01 pA (n=37) on average, corresponding to 18.9±0.1 pS (n=37) in conductance.
(§1) Thirteen commercial cyclodextrins (CDs) were tested for their ability to block WT-Wza and the mutant Y110G/K375C (Table 1) including, neutral, negatively charged or positively charged cyclodextrins. Testing was carried out using electrical channel recording in high salt buffer (2M KCl, 5 mM HEPES, 100 μM EDTA, 200 μM DTT) at pH 7.5.

E. coli strain E69 = assay: LPS exposure assay, O9a LPS to O9a LPS-specific antibodies (FACS); assay type: cell-based; details: 1 mM, antiserum incubation 1 h; for LPS exposure by median fluorescence intensity: relative to CWG281 positive control
Experimental: The direct effect of the inhibition of K30 CPS transport on E. coli strain E69 is the appearance of defects in the capsule layer. This should in turn lead to exposure of O9a LPS at the cell surface. To test this hypothesis, the attachment of rabbit anti-O9a antibodies was quantified by flow cytometry (FACS), by using secondary fluorescent anti-rabbit antibodies. The design of the experiment is depicted schematically in FIG. 4a.
E. coli strains E69 and CWG281 were grown as described above in Example 4 and the OD600 was adjusted to 0.4. The concentrations of cyclodextrin (either am8γCD (compound 13), am6αCD (compound 3) or am7βCD (compound 10)) present in the growth media were 10 nM, 100 nM, 1 μM, 10 μM, 50 μM, 100 μM and 1 mM. 50 μL samples of each were centrifuged at 3,000×g for 10 min to remove the medium, washed with PBS and resuspended in 50 μL PBS. O9a antiserum (0.5 μL) was then added. The mixtures were incubated on ice for 1 h (to compare the effects of am6αCD, am7βCD and am8γCD on the exposure of LPS) or 2 h (for the estimation of minimum effective concentration of am8γCD required to expose LPS to antibodies), followed by centrifugation at 3,000×g for 10 min and washing with PBS. The pellets were resuspended in PBS (50 μL), to which Alexa Fluor 488 Goat Anti-Rabbit IgG secondary antibody (1 μL, Life Technologies, A11034, λex 495 nm, λem 519 nm) was added, followed by incubation for 1 h on ice. The cells were then centrifuged at 3,000×g for 10 min. The pellets were resuspended in PBS (1 mL), followed by analysis by flow cytometry (FACS) using a Becton-Dickinson FACSCalibur. 10,000 cells were analysed for each sample. Fluorescence was measured in the FL1 channel (530 nm).

Wza Y110G/K375C = Wza Y110G/K375C (Escherichia coli, UniProt Q9X4B7, K375C/Y110G); assay: Single-channel electrical recording, blockers against mutant Wza Y110G/K375C; assay type: binding, E. coli; details: Y110G/K375C; for Kd: n = 3, 2M KCl buffer pH 7.5
Experimental: The Wza pore was opened by replacing the tyrosines at position 110 that line the narrowest region of the lumen with glycine. To confirm that the currents observed indeed arose from the mutant pore, a cysteine was introduced in the α-helix barrel (Y110G/K375C) and would therefore yield a characteristic reversible blockade when derivatized with a suitable thiol-specific reagent.
The unitary conductance of the Y110G/K375C pore was determined as for wt-Wza, by measuring stepwise-insertion using the same technique referenced above. The mean open current of Y110G/K375C was determined to be +85±14.1 pA (+50 mV, n=31), corresponding to 1.70±0.28 nS (+50 mV, n=31) in conductance.
as §1

SMILES | Interaction with WT Wza (WT Wza) | LPS exposure by percentage of labelled cells (E. coli strain E69) | LPS exposure by median fluorescence intensity (E. coli strain E69) | Interaction with mutant Wza (Wza Y110G/K375C; 2M KCl, 5 mM HEPES, 100 μM EDTA, 200 μM DTT, pH 7.5) | Kd (Wza Y110G/K375C; +3 mV, read-out: Kd, interaction with mutant Wza) | Kd (Wza Y110G/K375C; Kd, interaction with mutant Wza, +3 mV) | Kd (Wza Y110G/K375C; Kd, interaction with mutant Wza, +75 mV) | Kd (WT Wza)
NCC1OC2OC3C(CN)OC(OC4C(CN)OC(OC5C(CN)OC(OC6C(CN)OC(OC7C(CN)OC(OC1C(O)C2O)C(O)C7O)C(O)C6O)C(O)C5O)C(O)C4O)C(O)C3O (stereo not drawn) [No. 3, hexakis (6-amino-6-deoxy)-α-cyclodextrin] | not observed | 36% | 3.2% | – | – | – | – | –
NC[C@H]1O[C@@H]2O[C@H]3[C@H](O)[C@@H](O)[C@@H](O[C@H]4[C@H](O)[C@@H](O)[C@@H](O[C@H]5[C@H](O)[C@@H](O)[C@@H](O[C@H]6[C@H](O)[C@@H](O)[C@@H](O[C@H]7[C@H](O)[C@@H](O)[C@@H](O[C@H]8[C@H](O)[C@@H](O)[C@@H](O[C@H]1[C@H](O)[C@H]2O)O[C@@H]8CN)O[C@@H]7CN)O[C@@H]6CN)O[C@@H]5CN)O[C@@H]4CN)O[C@@H]3CN [No. 4, heptakis (6-amino-6-deoxy)-β-cyclodextrin] | not observed | 9% | 1.8% | not observed^b | 2900 ± 1800 µM | – | – | –
NC[C@H]1O[C@@H]2O[C@H]3[C@H](O)[C@@H](O)[C@@H](O[C@H]4[C@H](O)[C@@H](O)[C@@H](O[C@H]5[C@H](O)[C@@H](O)[C@@H](O[C@H]6[C@H](O)[C@@H](O)[C@@H](O[C@H]7[C@H](O)[C@@H](O)[C@@H](O[C@H]8[C@H](O)[C@@H](O)[C@@H](O[C@H]1[C@H](O)[C@H]2O)O[C@@H]8CN)O[C@@H]7CN)O[C@@H]6CN)O[C@@H]5CN)O[C@@H]4CN)O[C@@H]3CN [compound 4] | – | – | – | – | – | 2900 µM | 2100 µM | 13000 µM
